From patent US8362023B2, “Pyrazolo pyrimidines” (Hoffmann-La Roche Inc., priority 2011, dated 2013)
Where a name gives a salt, the structure may show the parent alone. Read-outs that look alike come from different tables or passages of the source.

Legend:
Human DYRK1B = molecular target: T1, Human DYRK1B (Homo sapiens, UniProt Q9Y463); assay: DYRK1B Kinase TR-FRET (IMAP-Tb) Assay; assay type: biochemical
T1 construct: purchased Invitrogen PR8350B (former PV4649)
Description: DYRK1B Kinase TR-FRET (IMAP-Tb) Assay Assay Principle The kinase TR-FRET (IMAP-Tb) assay uses a fluorescence labeled substrate peptide in the kinase reaction. Upon phosphorylation by the kinase, phosphopeptide is produced, which will be detected by the binding solution provided in IMAP TR-FRET binding kit. After the completion of the kinase reaction, the reaction will be stopped by adding the binding solution containing terbium tracer. This tracer is immobilized on the surface of the IMAP beads, which also contain metal ions on the beads that bind to the phospho-groups of the products. Thus the phosphorylated product of the reaction can enter into close proximity to the tracer, producing resonance energy transfer. Due to the long lifetime of terbium (Tb) fluorescence the detection can be run in time resolved mode, which virtually eliminates fluorescence interference from assay components or compounds. The TR-FRET signal measurement from this assay, given as an IC50 measurement, is a measure of a test compound's ability to interfere with the phosphorylation of the peptide substrate, that is it inhibits the phosphorylation of the substrate peptide by DYRK1B, and is thus a measure of the test compound's ability to inhibit the activity of DYRK1B. IC50 is the amount of test compound that inhibits 50% of the activity of DYRK1B in this assay. In some cases where the IC50 was not determined, then the % inhibition at 10 μM test compound concentration may be reported. Materials and Reagents • 1. Human DYRK1B: from Invitrogen. Part #PR8350B (former PV4649) • 2. Substrate Peptide: in-house synthesized: RRRFRPASPLRGPPK • 3. IMAP TR-FRET IPP Explorer Kit: from Molecular Devices. Part #R8157 • 4. Kinase Assay Buffer (KAB): 10 mM HEPES pH 7.0, 50 mM NaCl, 5 mM MgCl2, 1 mM DTT, 1 mM NaVO4, 200 μg/mL BSA (0.02%) • 5. Assay Plate: Remp polypropylene clear 384-well microplate. Cat#23490-102 • 6. Detection Plate: Costa black 384-well microplate. Cat #3710 Assay Procedure: this Assay was Performed as Follows: • 1. Transfer 1.5 μL of 20× compound solution to each well of an assay plate. • 2. Add to each well 22.5 μL of KAB Buffer. • 3. Add to each well 3 μL of the solution of DYRK1B and ATP. […] Add to each well 3 μL of the substrate peptide. The assay concentration is 1.0 μM • 5. Incubate the assay plates at 37° C. for 60 minutes. • 6. Add 18 μL of Detection Solution (1:800 diluted Progress bead stock, 1:400 diluted Tb stock, 80% Buffer A, and 20% Buffer B) into each well of detection plates. • 7. Transfer 6 μL of assay solution from the assay plate to the detection plate. • 8. Shake detection plates for 30 minutes. • 9. Read plates in Envision with wavelength set at excitation 340 nm for Tb, emission 490 nm, and […] 520 nm. • 10. Calculation: TR-FRET Signal=(Reading at […]/Reading at 490 nM)×2000000

Human DYRK1A = molecular target: T2, Human DYRK1A (Homo sapiens, UniProt Q13627); assay: DYRK1A Kinase TR-FRET (IMAP-Tb) Assay; assay type: biochemical; conditions: TR-FRET (IMAP-Tb); ATP 70 μM; 37° C. for 60 minutes; averages of multiple runs; read-out: Enzyme IC50 (μM) DYRK1A
T2 construct: purchased Invitrogen PV3997
Description: DYRK1A Kinase TR-FRET (IMAP-Tb) Assay
The kinase TR-FRET (IMAP-Tb) assay uses a fluorescence labeled substrate peptide in the kinase reaction. Upon phosphorylation by the kinase, phosphopeptide is produced, which will be detected by the binding solution provided in IMAP TR-FRET binding kit. After the completion of the kinase reaction, the reaction will be stopped by adding the binding solution containing terbium tracer. This tracer is immobilized on the surface of the IMAP beads, which also contain metal ions on the beads that bind to the phospho-groups of the products. Thus the phosphorylated product of the reaction can enter into close proximity to the tracer, producing resonance energy transfer. Due to the long lifetime of terbium (Tb) fluorescence the detection can be run in time resolved mode, which virtually eliminates fluorescence interference from assay components or compounds.
The TR-FRET signal measurement from this assay, given as an IC50 measurement, is a measure of a test compound's ability to interfere with the phosphorylation of the peptide substrate, that is it inhibits the phosphorylation of the substrate peptide by DYRK1A, and is thus a measure of the test compound's ability to inhibit the activity of DYRK1A.
Materials and Reagents • 1. Human DYRK1A: from Invitrogen. Part #PV3997 • 2. Substrate Peptide: […] • 3. IMAP TR-FRET IPP Explorer Kit: from Molecular Devices. Part #R8157 • 4. Kinase Assay Buffer (KAB): 10 mM HEPES pH 7.0, 50 mM NaCl, 5 mM MgCl2, 1 mM DTT, 1 mM NaVO4, 200 ug/mL BSA (0.02%) • 5. Assay Plate: Remp polypropylene clear 384-well microplate. […] Detection Plate: Costa black 384-well microplate.
Assay Procedure: this Assay was Performed as Follows: • 1. Transfer 1.5 μL of 20× compound solution to each well of an assay plate. • 2. Add to each well 22.5 μL of KAB Buffer. • 3. Add to each well 3 μL of the solution of DYRK1A and ATP. […] Add to each well 3 μL of the substrate peptide. The assay concentration is 1.0 μM • 5. Incubate the assay plates at 37° C. for 60 minutes. • 6. Add 18 μL of Detection Solution (1:800 diluted Progress bead stock, 1:400 diluted Tb stock, 80% Buffer A, and 20% Buffer B) into each well of detection plates. • 7. Transfer 6 μL of assay solution from the assay plate to the detection plate. • 8. Shake detection plates for 30 minutes. • 9. Read plates in Envision with wavelength set at excitation 340 nm for Tb, emission 490 nm, and […] 520 nm. • 10.

[1] = test system: SW620 human colon cancer cells; assay: SW620 Cell Viability Assay; assay type: cell-based; conditions: SW-620, 96 h, CellTiter-Glo Luminescent Cell Viability Assay, 4 days incubation, read-out: Cellular EC50 (μM) SW620
Method: SW620 Cell Viability Assay
1. Cell Plate Preparation: SW620 human colon cancer cells (known to express DYRK1B), obtained from ATCC, were seeded into 96-well plates at 3×10^3 cells/well in 50 μL of media. • Harvested the required number of cells (counts & viability determined by Guava Viacount). • Centrifuge cells to pellet and removed supernant. • Resuspended in growth media (50 μL/well) & pipetted thoroughly to break up clumps. • Setup for ˜100 wells/plate, therefore, VT=5 mL/plate @ […].
1A. Some cells (S—) were allowed to attach for 24 hrs, serum starved for 48 hrs, and then followed with test compound treatments.
Test compound solution were prepared in regular corresponding media supplemented with serum.
2. Test compound Preparation: Drugs were solubilized in either DMSO or media and prepared at various stock concentrations. • All compounds were incubated at 37° C. for 30 minutes and vortexed. • (5 mM stocks of test compound were prepared for non-soluble test compounds)
3. Test compound Plate Preparation: • The 10 mM test compound stock was diluted to a concentration of 100× the final Cmax concentration. • Then the test compound stock is diluted 50-fold in media and/or second test compound for a final Cmax concentration in the test compound plate. • The Cmax in the test compound plate (2% DMSO) is 2-fold higher than the final Cmax in the cell plate (60 μl, titrations were 1:3).
4. Viability Assay: This assay was performed as follows: • Transfer 50 μL of test compound solution per well from the test compound plate onto the cell plate prepared in Step #1. • Mix the plate with treated cells by pipetting up and down three times with 200 μL multi-channel pipette. • Incubate the cells in 5% CO2 incubator @ 37° C. for 4 days. • Run the CellTiter-Glo™ Luminescent Cell Viability Assay.
The results of this assay, given as EC50 values, indicate the concentration of test compound that inhibits tumor cell proliferation by 50%.

[2] = TR-FRET (IMAP-Tb), ATP 70 μM, 37° C. for 60 minutes, averages of multiple runs, read-out: Enzyme IC50 (μM) DYRK1B

T1 sequence (Q9Y463 whole entry): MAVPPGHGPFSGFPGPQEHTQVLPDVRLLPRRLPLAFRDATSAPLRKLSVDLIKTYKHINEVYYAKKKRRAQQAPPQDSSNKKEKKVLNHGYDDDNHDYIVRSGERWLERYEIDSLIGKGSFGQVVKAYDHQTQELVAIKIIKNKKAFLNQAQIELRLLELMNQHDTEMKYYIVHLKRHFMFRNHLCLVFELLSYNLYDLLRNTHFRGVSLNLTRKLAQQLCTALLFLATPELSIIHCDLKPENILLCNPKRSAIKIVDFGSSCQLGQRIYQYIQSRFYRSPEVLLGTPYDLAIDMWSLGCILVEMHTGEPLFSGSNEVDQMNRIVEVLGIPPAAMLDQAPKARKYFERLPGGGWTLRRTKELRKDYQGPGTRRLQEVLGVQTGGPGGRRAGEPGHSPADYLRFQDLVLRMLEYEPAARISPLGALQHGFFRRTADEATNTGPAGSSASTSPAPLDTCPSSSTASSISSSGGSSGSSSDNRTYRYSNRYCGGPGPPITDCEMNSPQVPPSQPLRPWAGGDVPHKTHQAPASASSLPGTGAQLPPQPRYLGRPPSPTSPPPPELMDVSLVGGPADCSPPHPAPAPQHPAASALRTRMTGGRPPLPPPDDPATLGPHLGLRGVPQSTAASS

SMILES	IC50 (Human DYRK1B; [2]) [µM]	IC50 (Human DYRK1A) [µM]	EC50 [1] [µM]	IC50 (Human DYRK1B) [µM]
Clc1cccc(CNc2cccc(-c3n[nH]c4nc(NCCN5CCOCC5)ncc34)n2)c1 [Example 47, {3-[6-(3-Chloro-benzylamino)-pyridin-2-yl]-1H-pyrazolo[3,4-d]pyrimidin-6-yl}-(2-morpholin-4-yl-ethyl)-amine]	1.06	1.39	> 10	–
N[C@H]1CC[C@H](Nc2ncc3c(-c4cccc(NCc5ccccc5)n4)n[nH]c3n2)CC1 [Example 49, N-[3-(6-Benzylamino-pyridin-2-yl)-1H-pyrazolo[3,4-d]pyrimidin-6-yl]-cyclohexane-1,4-diamine]	0.101	0.0124	1.71	–
N[C@H]1CC[C@H](Nc2ncc3c(-c4cccc(NCc5ccccc5)c4)n[nH]c3n2)CC1 [Example 52, N-[3-(3-Benzylamino-phenyl)-1H-pyrazolo[3,4-d]pyrimidin-6-yl]-cyclohexane-1,4-diamine]	0.241	0.594	0.923	–
N[C@H]1CC[C@H](Nc2ncc3c(-c4cccc(NCc5cccs5)c4)n[nH]c3n2)CC1 [Example 53, N-(3-{3-[(Thiophen-2-ylmethyl)-amino]-phenyl}-1H-pyrazolo[3,4-d]pyrimidin-6-yl)-cyclohexane-1,4-diamine]	0.183	0.405	1.84	–
c1cc(NCc2cccs2)cc(-c2n[nH]c3nc(NCCN4CCOCC4)ncc23)c1 [Example 54, (2-Morpholin-4-yl-ethyl)-(3-{3-[(thiophen-2-ylmethyl)-amino]-phenyl}-1H-pyrazolo[3,4-d]pyrimidin-6-yl)-amine]	4.96	3.85	> 10	–
N[C@H]1CC[C@H](Nc2ncc3c(-c4cccc(NCc5ccc(Cl)cc5)c4)n[nH]c3n2)CC1 [Example 55, N-{3-[3-(4-Chloro-benzylamino)-phenyl]-1H-pyrazolo[3,4-d]pyrimidin-6-yl}-cyclohexane-1,4-diamine]	0.181	0.502	1.85	–
N[C@H]1CC[C@H](Nc2ncc3c(-c4cccc(NCc5ccccc5Cl)c4)n[nH]c3n2)CC1 [Example 56, N-{3-[3-(2-Chloro-benzylamino)-phenyl]-1H-pyrazolo[3,4-d]pyrimidin-6-yl}-cyclohexane-1,4-diamine]	0.194	0.346	4.1	–
Clc1ccccc1CNc1cccc(-c2n[nH]c3nc(NCCN4CCOCC4)ncc23)c1 [Example 57, {3-[3-(2-Chloro-benzylamino)-phenyl]-1H-pyrazolo[3,4-d]pyrimidin-6-yl}-(2-morpholin-4-yl-ethyl)-amine]	1.55	2.62	> 10	–
N[C@H]1CC[C@H](Nc2ncc3c(-c4cccc(NCc5ccsc5)c4)n[nH]c3n2)CC1 [Example 58, N-(3-{3-[(Thiophen-3-ylmethyl)-amino]-phenyl}-1H-pyrazolo[3,4-d]pyrimidin-6-yl)-cyclohexane-1,4-diamine]	0.762	2.61	6.41	–
Clc1ccccc1CNc1cccc(-c2n[nH]c3nc(NCCN4CCOCC4)ncc23)n1 [Example 59, {3-[6-(2-Chloro-benzylamino)-pyridin-2-yl]-1H-pyrazolo[3,4-d]pyrimidin-6-yl}-(2-morpholin-4-yl-ethyl)-amine]	0.924	0.663	> 10	–
NCC(Nc1nccc(-c2n[nH]c3nc(NCCN4CCOCC4)ncc23)n1)c1ccccc1 (centres unmarked) [Example 83, N1-{4-[6-(2-Morpholin-4-yl-ethylamino)-1H-pyrazolo[3,4-d]pyrimidin-3-yl]-pyrimidin-2-yl}-1-phenyl-ethane-1,2-diamine; hydrochloride]	–	–	0.56	0.0183
OCCNc1ncc2c(-c3ccnc(NCc4cccc(Cl)c4)n3)n[nH]c2n1 [Example 91, 2-{3-[2-(3-Chloro-benzylamino)-pyrimidin-4-yl]-1H-pyrazolo[3,4-d]pyrimidin-6-ylamino}-ethanol; hydrochloride]	0.183	0.25	–	–
Clc1cccc(CNc2nccc(-c3n[nH]c4nc(NCCN5CCNCC5)ncc34)n2)c1 [Example 92, {3-[2-(3-Chloro-benzylamino)-pyrimidin-4-yl]-1H-pyrazolo[3,4-d]pyrimidin-6-yl}-(2-piperazin-1-yl-ethyl)-amine; hydrochloride]	0.057	0.076	–	–
Clc1cccc(CNc2nccc(-c3n[nH]c4nc(NCCN5CCCCC5)ncc34)n2)c1 [Example 93, hydrochloride]	0.93	0.46	–	–
